Patent US20260207459A1, “SUGARCANE DERIVED SEMI-SYNTHETIC COSMETIC INGREDIENTS, METHODS OF PRODUCTION THEREOF, AND PERSONAL CARE PRODUCTS DERIVED THEREFROM” (AMYRIS, INC., priority 2023, published 2026)
Each block holds one molecule with its values, some of them ahead of it.

How the values were obtained:
[1] = In vitro skin permeation, Franz diffusion cell system; assay type: in vitro ADME, human; conditions: for Total accumulated dose passed through the skin into the reservoir / Total accumulated dose in Dermis / Total accumulated dose in Epidermis: 1.0 wt % in squalane, 5 μl, nominal 90.91 μg/cm^2; for Total accumulated dose in Dermis / Total accumulated dose in Epidermis: measured at 24 hours; for penetration to the dermis compared with THDA: 24 hour time point, cadaver skin
Method: The rate and extent of in vitro skin permeation of compounds tetrahexydecyl ascorbate (THDA, shown below), di(hexahydrofarnesyl) ascorbate (Compound (II-A)), tri(hexahydrofarnesyl) ascorbate (Compound (II-B)), and tetra(hexahydrofamesyl) ascorbate (Compound (II-C)) was measured into and through cadaver skin using a Franz diffusion cell system. THDA is a Vitamin C ester commonly used in cosmetic formulations.
Flux was measured over a period of 24 hours after application of the formulations. At the end of the 24 hour study, the skin was washed, tapestripped and split into epidermal and dermal compartments. The compounds were then extracted from the skin compartments and the compound concentration was measured in these compartments along with the receptor fluid aliquots. The formulations were chosen to determine the effect of the formulation composition and compound concentration on the rate of delivery of the compounds into and through the skin. In vitro skin permeation measurements with Franz-type diffusion cells provide data that is informative relative to in vivo performance.
To prepare the formulations, the compounds were weighed in a glass vial into which the squalane was added. The ending solution was then vortexed for 1 minute, followed by sonication for 30 minutes.
Intact human cadaver skin was purchased from Science Care. The skin tissue was dermatomed by the tissue bank to a thickness of some 250-500 μm and shipped frozen on dry ice. Upon receipt of the donor skin, the skin pieces were stored at −20° C. until used. Prior to use, the skin pieces were removed from the freezer and allowed to thaw fully at ambient temperature.
The following equipment was used during the course of the study: • 1.) Diffusion cells. 24 diffusion cells with 3.3 ml receptor volume and a […] receptor fluid exposure surface area. • 2.) Stirring Dry Block Heaters. Reacti-Therm #18823 stirring dry block heaters were used to maintain the receptor fluid at 32±0.5° C. with constant stirring throughout the study. • 3.) The analysis was carried out with an Agilent 1260 HPLC with a G6120 MS detector and a G4212B diode array detector.
After the analytical testing was complete, the samples were analyzed using Chemstation software. The areas under the curve (“AUCs”) of the compound peaks were recorded and converted to jig/ml values using a calibration curve developed from the calibration standards' AUC values and known concentration values. The concentrations were then multiplied by the receptor volume (3.3 mL) and divided by the surface area of the skin exposed to the receptor fluid (0.55 cm^2) for an end cumulative amount in μg/cm^2.
For receptor fluid time points greater than 4 hrs, this μg/cm^2 value was corrected for the sample aliquot volumes which were removed to compensate for the dilution caused by replacing the sample volume with fresh buffer solution. As an example, for the second time point at 8 hrs, the dilution factor (300 μl aliquot/3.3 ml receptor volume or 1/11) is multiplied by the g/cm^2 value calculated for the 4 hr time point, the result of which is then added to the μg/cm^2 concentration which is calculated using the 8 hr AUC value.
The receptor fluid consisted of phosphate buffered saline at pH 7.4, sourced from Quality Biologicals, with 0.01 wt % NaN3 (added as a preservative), and lwt % Brij 020 (added as a solubilizing agent). The solubility of the compounds in the receptor fluid was determined to be sufficient to maintain sink conditions throughout the study. After mixing the receptor fluid, the receptor fluid was degassed, filtered through a ZapCap CR 0.2 μm membrane under vacuum, and stirred for an additional 20 minutes under vacuum.
Glass FDCs with a 3.3 ml receiver volume and 0.55 cm^2 diffusional area were used. Once the skin was defrosted and washed as described above the FDCs were prepared as follows: • 1. The receptor wells were filled with degassed receptor fluid using a pipette. • 2. […]

[2] = Static contact angle (wetting) on glass / PTFE; assay type: physicochemical; conditions: for Water contact angle: static contact angle on glass
Method: Static water contact angle is another indication of material spreading and wetting.
(§1) Example 9: Wetting on Hydrophobic-PTFE and Hydrophilic-Glass Slide Substrates by Static Contact Angle and Surface Tension by Pendant Drop Shape Analysis
(§2) The wetting values (on hydrophobic-PTFE and on hydrophilic-glass slides) were measured and compared for amodimethicone, LEX FEEL (diheptyl succinate), non-redistilled HDD, distilled HDD, PROTOL (mineral oil), RUDOL (mineral oil), ERVOL (mineral oil), and squalane. […] The lower surface tension of HDD can be translated to better spreading and glide in formulations and position it comparably with mineral oils with similar viscosities and LEX FEEL 350.
(§3) Measurement of surface tension of liquids: A Kruss DSA 100 was employed using the pendant drop method. Prior to the measurement, surface tension of the water was tested as a standard with an expected surface tension of 72 mN/m at 25° C. Then, a drop of the tested liquid was pushed through a 0.514 mm needle of a micro syringe and the surface tension was calculated using inbuilt software. The result of the measurement is an average of at least 3 measurements. Static contact angle measurement (wetting): To measure the contact angle, a Kriss DSA 100 and the sessile drop method were used. A glass substrate was used for the measurements. To measure the contact angle on the substrate, a single drop was deposited onto the substrate from a 0.514 mm needle of a micro syringe. Then, drop shape and contact angle were analyzed using inbuilt software. The result of the measurement was the average of at least 3 measurements. To ensure that the substrate is prepared well, it was cleaned with non-polar hexane, THF, and polar acetone. To ensure that the glass substrate was clean, a drop of water was deposited on its surface. Gloss measurement: To measure the gloss, 2 mL of material was drawn downed on a glass substrate. Then glass was placed over a black matte surface and gloss was measured with a BYK micro-TRI-gloss glossmeter.

[3] = Surface tension by pendant drop; assay type: physicochemical; conditions: for Surface tension: Kruss DSA 100, pendant drop; for surface tension (comparison in words): pendant drop shape analysis, FIG. 4
Method: The surface tension of a material in beauty and personal care (B&PC) ingredients accounts for many of the sensory attributes. The lower the surface tension of a material the better is the material's spreadability, slip, glide, and lubricity.
as §1, §2, §3

[4] = Viscosity (capillary viscometer / rheometer); assay type: physicochemical; conditions: for Viscosity: at 25° C., ARES G2 rheometer
Method: The viscosity, gloss, surface tension, and wetting were also calculated for farnesyl HH-farnesoate (Compound (I-C)) and the results are shown in Table 4. The properties of Table 4 were determined as follows: Measurement of dynamic viscosity using rheometer: Using a ARES G2 rheometer, the viscosity of the samples were measured using 25 mm plate clamps with a gap size about 0.5 mm, strain 1%, frequency range 1-500 rad/s, and a temperature of about 25° C.

[5] = Gloss measurement (glossmeter); assay type: physicochemical
Method: Gloss is a very desirable property in B&PC products. Gloss was measured at 20 deg.
Tested dimethicones have the lowest gloss.
as §3

Molecule: CC(C)CCCC(C)CCCC(C)CCOC(=O)CC(C)CCCC(C)CCCC(C)C (centres unmarked) [Compound (I-C), 3,7,11-trimethyldodecyl 3,7,11-trimethyldodecanoate]
Wetting (static contact angle) ([2]; sessile drop on glass substrate): 18.5° | Surface tension [3]: 27.6 ± 0.2 mN/m | Surface tension ([3]; listed as Compound I-C): 27.6±0.2 mN/m | Viscosity [4]: 30 ± 10 cP at 25 °C | Viscosity ([4]; listed as Compound I-C): 30±10 cP | Gloss ([5]; BYK micro-TRI-gloss glossmeter, drawn down on glass): 69.4 ± 2.7

Molecule: CC(C)CCCC(C)CCCC(C)CC(=O)OC[C@H](OC(=O)CC(C)CCCC(C)CCCC(C)C)C1OC(=O)C(O)=C1O (stereo partly drawn) [Compound (II-A), (1S)-1-(3,4-dihydroxy-5-oxo-2,5-dihydrofuran-2-yl)ethane-1,2-diyl bis(3,7,11-trimethyldodecanoate)]
Total accumulated dose passed through the skin into the reservoir ([1]; 4 hrs): 0.17 μg/cm^2 | Total accumulated dose passed through the skin into the reservoir ([1]; 8 hrs): 0.18 μg/cm^2 | penetration to the dermis compared with THDA [1]: better penetration to the dermis | Total accumulated dose passed through the skin into the reservoir ([1]; 24 hrs): 0.20 μg/cm^2 | Total accumulated dose in Dermis [1]: 0.85 μg/cm^2 | Total accumulated dose in Epidermis [1]: 9.28 μg/cm^2

Molecule: hexahydrofarnesene dimer [HDD Glycotech]
surface tension (comparison in words) ([3]; listed as Non-redistilled HDD): highest values of surface tension | viscosity by rheology [4]: 68.2

Molecule: hexahydrofarnesene dimer [HDD]
Water contact angle [2]: 19.8 ° | Surface tension, mN/m [3]: 24.5 mN/m | surface tension (comparison in words) ([3]; listed as Distilled HDD): lower surface tension value | Viscosity @20 C., cP [4]: 61.5 cP | viscosity by rheology [4]: 61.5 | Gloss ([5]; measured at 20 deg): 70.6

Molecule: CC(C)CCCC(C)CCCC(C)CC(=O)OC[C@H](OC(=O)CC(C)CCCC(C)CCCC(C)C)C1OC(=O)C(O)=C1OC(=O)CC(C)CCCC(C)CCCC(C)C (stereo partly drawn) [Compound (II-B), (1S)-1-(4-hydroxy-5-oxo-3-((3,7,11-trimethyldodecanoyl)oxy)-2,5-dihydrofuran-2-yl)ethane-1,2-diyl bis(3,7,11-trimethyldodecanoate)]
Total accumulated dose passed through the skin into the reservoir ([1]; 4 hrs): 0.00 μg/cm^2 | Total accumulated dose passed through the skin into the reservoir ([1]; 8 hrs): 0.00 μg/cm^2 | penetration to the dermis compared with THDA [1]: better penetration to the dermis | Total accumulated dose passed through the skin into the reservoir ([1]; 24 hrs): 0.00 μg/cm^2 | Total accumulated dose in Dermis [1]: 1.37 μg/cm^2 | Total accumulated dose in Epidermis [1]: 4.41 μg/cm^2

Now from value to molecule:

Total accumulated dose passed through the skin into the reservoir ([1]; 4 hrs): 0.00 μg/cm^2 | Total accumulated dose passed through the skin into the reservoir ([1]; 8 hrs): 0.00 μg/cm^2 | Total accumulated dose passed through the skin into the reservoir ([1]; 24 hrs): 0.00 μg/cm^2 | Total accumulated dose in Dermis [1]: 0.18 μg/cm^2 | Total accumulated dose in Epidermis [1]: 25.78 μg/cm^2
Molecule: CCCCCCCCC(CCCCCC)C(=O)OCC(OC(=O)C(CCCCCC)CCCCCCCC)C1OC(=O)C(OC(=O)C(CCCCCC)CCCCCCCC)=C1OC(=O)C(CCCCCC)CCCCCCCC (centres unmarked) [Tetrahexydecyl ascorbate, tetrahexydecyl ascorbate, reference compound]

Water contact angle [2]: 30.9 ° | Surface tension, mN/m [3]: 26.1 mN/m | Viscosity @20 C., cP [4]: 23.3 cP | gloss value (comparison in words) [5]: somewhat lower gloss value | Gloss ([5]; measured at 20 deg): 65.7
Molecule: CC(C)CCCC(C)CCCC(C)CCCCC(C)CCCC(C)CCCC(C)C (centres unmarked) [Squalane, squalane, reference compound]

Total accumulated dose passed through the skin into the reservoir ([1]; 4 hrs): 0.05 μg/cm^2 | Total accumulated dose passed through the skin into the reservoir ([1]; 8 hrs): 0.03 μg/cm^2 | Total accumulated dose passed through the skin into the reservoir ([1]; 24 hrs): 0.04 μg/cm^2 | Total accumulated dose in Dermis [1]: 0.01 μg/cm^2 | Total accumulated dose in Epidermis [1]: 1.02 μg/cm^2
Molecule: CC(C)CCCC(C)CCCC(C)CC(=O)OC[C@H](OC(=O)CC(C)CCCC(C)CCCC(C)C)C1OC(=O)C(OC(=O)CC(C)CCCC(C)CCCC(C)C)=C1OC(=O)CC(C)CCCC(C)CCCC(C)C (stereo partly drawn) [Compound (II-C), 2-((1S)-1,2-bis((3,7,11-trimethyldodecanoyl)oxy)ethyl)-5-oxo-2,5-dihydrofuran-3,4-diyl bis(3,7,11-trimethyldodecanoate)]
